Patent publication US8263344B2, “Compounds regulating calreticulin, KDEL receptor and/or Erp-57 cell surface exposure and uses thereof to evaluate the efficiency of a cancer treatment” (Institut Gustave Roussy, priority 2006, dated 2012)
Peptide text beside a SMILES is read from it. * marks the point of attachment. Cbz = O=C(OCc1ccccc1)*; CH2F = FC*

Experiments:
CT26 tumour cells = experiment: Anti-tumour vaccination with treated (dying) CT26 cells and challenge with live tumour cells; format: in vivo, BALB/c mice; settings: for immunogenic apoptosis / immunogenic cell death (protection against tumour growth): dying CT26 cells injected into one flank, rechallenge with live tumour cells in opposite flank 8 days later
CT26 tumours [1] = experiment: Single intratumoural injection into established CT26 tumours, immunocompetent mice; format: in vivo, BALB/c mice
CT26 cells [2] = experiment: Fluorescence detection of cell surface CRT; format: cell-based, murine
Procedure: CT26 cells were cultured at 37° C. under 5% CO2 in RPMI 1640 medium supplemented with 10% FCS, penicillin, streptomycin, 1 mM pyruvate and 10 mM HEPES in the presence of doxorubicin (DX; 24 h, 25 μM), mitoxantrone (Mitox; 24 h, 1 μM, Sigma), idarubicin (24 h, 1 μM, Aventis, France), mitomycin C (30 μM, 48 h; Sanofi-Synthelabo, France), and/or zVAD-fmk (50 μM, 24 h; Bachem), tunicamycin (24 h, 65 μM), thapsigargin (24 h, 30 μM), brefeldin A (24 h, 50 μM, Sigma), etoposide (48 h, 25 μM, Tava classics), MG132 (48 h, 10 μM), ALLN (48 h, […]), betulinic acid (24 h, 10 μM), Hoechst 33343 (24 h, 0.2 μM), camptothecine (24 h, 15 μM), lactacystin (48 h, 60 μM), BAY 11-8072 (24 h, 30 μM), staurosporine (24 h, 1.5 μM), bafilomycin A1 (48 h, 300 nM), arsenic trioxide (24 h, 30 μM), C2-ceramide (C2-C; 24 h, 60 μM), calyculin A (48 h, 30 nM), or tautomycin (48 h, […], Sigma) and/or salubrinal (48 h, […], Calbiochem).
CT26 cells (on a glass slide or in 12-well plates) were first washed with FACS buffer (1×PBS, 5% fetus bovine serum, and 0.1% sodium azide) and then incubated with rabbit anti-mouse CRT antibody (1:100, Stressgen) in FACS buffer at 4° C. for 30 min. Cells reacted with anti-rabbit IgG (H+L) Alexa fluor 488-conjugates (1:500) in FACS buffer at 4° C. for 30 min. After washing three times with FACS buffer, surface CRT was detected by cytofluorometric analysis on a FACS Vantage. In some experiments, cells were fixed with 4% paraformaldehyde, counterstained with Hoechst (2 μM; Sigma), followed by fluorescence microscopic assessment with a Leica IRE2 microscope equipped with a DC300F camera.

CT26 tumours [3] = experiment: Single intratumoural injection into established CT26 tumours, athymic mice; set-up: species or system nu/nu Balb/c mice; settings: mouse, in vivo
CT26 cells [4] = experiment: Phagocytosis of tumour cells by dendritic cells (DC); format: cell-based, BALB/c mice
Procedure: BM cells were flushed from the tibias and femurs of BALB/c mice with culture medium composed of RPMI 1640 medium (Invitrogen Life Technologies) supplemented with 10% heat-inactivated FBS (Invitrogen), sodium pyruvate, 50 μM 2-ME (Sigma), 10 mM HEPES (pH 7.4), and penicillin/streptomycin (Invitrogen). After one centrifugation, BM cells were resuspended in Tris-ammonium chloride for 2 min to lyse RBC. After one more centrifugation, BM cells (1×10^6 cells/ml) were cultured in medium supplemented with 100 ng/ml recombinant mouse FLT3 ligand (R&D systems) in 6-well plates (Costar Corning). After 7 days, the non-adherent and loosely adherent cells were harvested with Versene, washed and transferred in 12-well plates (1.5×10^6 cells/plate) for cocultures with tumour cells.
In 12-well plates, […] adherent CT26 cells were labelled with Celltracker Green (Calbiochem) and then incubated with drugs. In some experiments viable CT26 were coated with 2 μg/10^6 cells of chicken anti-CRT antibody (ABR affinity bioreagents) or an isotype control for 30 min prior to washing and feeding to dendritic cells Cs. Alternatively CT26 cells were coated with 2 μg/10^6 cells of rCRT on ice for 30 min and washed twice prior to addition to dendritic cells. Cells were then harvested, washed three times with medium supplemented with FBS and cocultured with immature DC for 2 hours at a ratio of 1:1 and 1:5. At the end of the incubation, cells were harvested with versene, pooled with non-adherent cells present in the supernatant, washed and stained with CD11c-FITC antibody. Phagocytosis was assessed by FACS analysis of double positive cells. Phagocytic indexes refer to the ratio between values obtained at 4° C. and values obtained at 37° C. of co-incubation between DC and tumour cells.

HeLa cells = experiment: Surface ERp57 detection (immunofluorescence, flow cytometry); format: cell-based, human; settings: 2 h, MTX 1 μM
Procedure: HeLa cells were cultured on cover slips (in RPM1160 medium supplemented with 10% fetal calf serum, L-glutamine and antibiotics), in the absence (control) or in the presence of 1 μM mitoxantrone (MTX, Sigma) for 2 h. For the intracellular stainings, HeLa cells were fixed and permeabilised by means of Cytofix/Cytoperm kit from Becton Dickinson according to the manufacturer's instructions. For the surface stainings, HeLa cells were fixed with paraformadehyde (4% w/v) on ice for 5 min. […] Nuclei were labelled with DAPI mounting medium (Vectashield). Fluorescence microscopy was analyzed with a Leica IRE2 equipped with a DC300F camera. Size bars represent 10 μm.
HeLa cells were treated with or without mitoxantrone (MTX, 1 μM) or tautomycin (Tau, 150 nM, Sigma) for 2 h. Cells were washed twice with PBS and fixed in PFA (4% w/v) for 5 min. HeLa cells were stained with an antibody against Erp57 (pAb from Abcam, ab10827) at 1:200 dilution or isotype control, in staining buffer (PBS, 1% FCS) for 30 min on ice, followed by washing. An anti-rabbit Alexa fluor 488 immunoglobulin conjugate (Molecular Probes-Invitrogen) diluted at 1:500 was added for an additional 30 min on ice before washing and analysed by flow cytometry (FACScan, Becton Dickinson). […] The CellQuest software was used to analyse the mean fluorescence intensity (MFI) and the percentage of ERp57 positive cells.
FIG. 12: ERp57 exposure depends on the activation of a caspase. • (A) HeLa cells were treated with MTX (1 μM) for 2 h in the presence or absence of 50 μM zVAD.fmk. The MFI of surface Erp57 positive cells was analysed as described in FIG. 9. • (B) HCT116 parental cells stably transfected with either a vector encoding p35 (Stennicke et al., 2002; Date et al., 2003) or with a PCMV vector (Sigma) as control, were treated with MTX (1 μM) for 2 h. The MFI of surface Erp57 positive cells was analysed as described in FIG. 9. • (C) HCT116 cells were pre-incubated in the presence of 50 μM biotinylated VAD.fmk (Calbiochem) for 2 h. […]

CT26 cells [5] = experiment: Biotinylation of cell surface proteins, 2D gel electrophoresis and mass spectrometry

Compound: CCOc1ccc(-c2nc3ccc(-c4nc5ccc(N6CCN(C)CC6)cc5[nH]4)cc3[nH]2)cc1 [Hoechst 33342]
- immunogenic apoptosis / immunogenic cell death (protection against tumour growth) (CT26 tumour cells): failed to induce immunogenic apoptosis

Compound: COc1cc([C@@H]2c3cc4c(cc3[C@@H](O[C@@H]3O[C@@H]5CO[C@@H](C)O[C@H]5[C@H](O)[C@H]3O)[C@H]3COC(=O)[C@H]23)OCO4)cc(OC)c1O [etoposide]
- immunogenic apoptosis / immunogenic cell death (protection against tumour growth) (CT26 tumour cells): failed to induce immunogenic apoptosis
- immunogenicity of sham-coated cells treated with etoposide (CT26 tumour cells; mouse, in vivo): poorly immunogenic
- therapeutic effect of intratumoural injection, single agent, immunocompetent mice (CT26 tumours [1]; mouse, in vivo): no major therapeutic effect
- CRT exposure at the cell surface (CT26 cells [2]): fail to induce ecto-CRT
- therapeutic effect of intratumoural injection, single agent, nu/nu mice (CT26 tumours [3]): no major therapeutic effect

Compound: tunicamycin
- immunogenic apoptosis / immunogenic cell death (protection against tumour growth) (CT26 tumour cells): failed to induce immunogenic apoptosis

Compound: CC[C@@]1(O)C(=O)OCc2c1cc1n(c2=O)Cc2cc3ccccc3nc2-1 [camptothecin]
- immunogenic apoptosis / immunogenic cell death (protection against tumour growth) (CT26 tumour cells): failed to induce immunogenic apoptosis

Compound: 5′-rCrCrGrCUrGrGrGUrCrGrArAUrCrRrArATT-3′ [specific siRNA]
- phagocytosis by DC of anthracyclin/mitoxantrone-treated tumour cells after blockade or knockdown of CRT (CT26 cells [4]): suppressed the phagocytosis

Compound: CCCCCCCCCCCCC/C=C/[C@@H](O)[C@H](CO)NC(=O)CCCCCCCCCCCCCCC [C16-ceramide]
- ecto-CRT after C16-ceramide (CT26 cells [2]; 30 μM, 2 h): rapidly induces ecto-CRT

Compound: C[C@H]1CCC/C=C/[C@@H]2C[C@H](O)C[C@H]2[C@H](O)/C=C/C(=O)O1 [brefeldin, brefeldin A]
- immunogenic apoptosis / immunogenic cell death (protection against tumour growth) (CT26 tumour cells): failed to induce immunogenic apoptosis

Compound: C/C1=C/C(=O)O[C@@H]2C[C@@H](CC[C@H](C)/C=C\C=C\CC1)O[C@@](O)([C@@H]1CSC(=O)N1)C2 [latrunculin A]
- effect on CRT exposure induced by anthracyclins and PP1/GADD34 inhibitors (CT26 cells [2]; pre-incubation for 1 h with the inhibitor): abolished

Compound: CO[C@H]([C@H](O)CC(=O)[C@@H](C)[C@@H](O)CC[C@@H](C)[C@@H]1O[C@]2(CC[C@@H](C)[C@H](CC[C@H](C)C(C)=O)O2)CC[C@@H]1C)[C@H](OC(=O)C[C@@H](O)C1=C(C)C(=O)OC1=O)C(C)C [tautomycin]
- immunogenic cell death by PP1/GADD34 inhibition alone (CT26 tumour cells; mouse, in vivo): not sufficient to induce immunogenic cell death
- surface exposure of ERp57 (HeLa cells; Tau 150 nM): stimulates the surface exposure
- therapeutic effect of intratumoural injection, single agent, immunocompetent mice (CT26 tumours [1]; established 14-day-old CT26 tumours): no major therapeutic effect
- therapeutic effect combined with a cell death inducer (etoposide or mitomycin C), immunocompetent mice (CT26 tumours [1]; intratumoural): stable disease or complete tumour regression
- CRT exposure at the cell surface (CT26 cells [2]): efficiently induced
- therapeutic effect of intratumoural injection, single agent, nu/nu mice (CT26 tumours [3]): no major therapeutic effect

Compound: COC(=O)C[C@H](NC(=O)[C@H](C)NC(=O)[C@@H](NC(=O)OCc1ccccc1)C(C)C)C(=O)CF [Z-VAD-fmk] (Cbz-Val-Ala-Asp(OMe)-CH2F)
- effect on immunogenicity of doxorubicin-elicited cell death (CT26 tumour cells; doxorubicin plus Z-VAD-fmk): reduces the immunogenicity
- effect on ERp57 exposure induced by MTX (HeLa cells): abolished

Compound: CO[C@@]12[C@H](COC(N)=O)C3=C(C(=O)C(C)=C(N)C3=O)N1C[C@@H]1N[C@@H]12 [mitomycin C]
- therapeutic effect of intratumoural injection, single agent, immunocompetent mice (CT26 tumours [1]; mouse, in vivo): no major therapeutic effect
- CRT exposure at the cell surface (CT26 cells [2]): fail to induce ecto-CRT
- therapeutic effect of intratumoural injection, single agent, nu/nu mice (CT26 tumours [3]): no major therapeutic effect

Compound: COc1cccc2c1C(=O)c1c(O)c3c(c(O)c1C2=O)C[C@@](O)(C(=O)CO)C[C@@H]3O[C@H]1C[C@H](N)[C@H](O)[C@H](C)O1 [doxorubicin]
- immunogenic apoptosis / immunogenic cell death (protection against tumour growth) (CT26 tumour cells): elicited immunogenic cell death
- phagocytosis of treated tumour cells by DC (CT26 cells [4]; within a few hours after treatment): acquired the property to be phagocytosed by DC
- induction of surface CRT (factor), combined with Z-VAD-fmk (CT26 cells [5]; 4 h, doxorubicin plus Z-VAD-fmk): 1.8
- ERP57 surface exposure (CT26 cells [5]; 4 h treatment, 2D electrophoreses): specifically induced
- induction of surface CRT (factor) (CT26 cells [5]; short-term (4 h) treatment, biotinylated surface proteins, 2D electrophoreses): 6

Compound: CCCCCCCCCCCCC/C=C/[C@@H](O)[C@H](CO)NC(C)=O [C2 ceramide, C2-ceramide]
- immunogenic apoptosis / immunogenic cell death (protection against tumour growth) (CT26 tumour cells): failed to induce immunogenic apoptosis

Compound: CC(=O)[C@]1(O)Cc2c(O)c3c(c(O)c2[C@@H](O[C@H]2C[C@H](N)[C@H](O)[C@H](C)O2)C1)C(=O)c1ccccc1C3=O [idarubicin]
- immunogenic apoptosis / immunogenic cell death (protection against tumour growth) (CT26 tumour cells): elicited immunogenic cell death

Compound: C/C=C(/C)C(=O)O[C@H]1C(C)=C2[C@H]([C@@H]1OC(=O)CCCCCCC)[C@@](C)(OC(C)=O)C[C@H](OC(=O)CCC)[C@@]1(O)[C@H]2OC(=O)[C@@]1(C)O [thapsigargin]
- immunogenic apoptosis / immunogenic cell death (protection against tumour growth) (CT26 tumour cells): failed to induce immunogenic apoptosis

Compound: COC[C@@H]([C@H](O)[C@H](O)C(=O)NCC[C@H](C)c1nc(/C=C/C[C@@H]2O[C@]3(C[C@@H](O)[C@@H]2C)O[C@H]([C@H](C[C@H](O)[C@H](C)[C@H](O)[C@H](C)/C=C(C)/C(C)=C/C=C/C(C)=C\C#N)OC)[C@H](OP(=O)(O)O)C3(C)C)co1)N(C)C [calyculin A]
- immunogenic cell death by PP1/GADD34 inhibition alone (CT26 tumour cells; mouse, in vivo): not sufficient to induce immunogenic cell death
- CRT exposure at the cell surface (CT26 cells [2]): efficiently induced
